# Measured values taken from patent US9403843B2, “Cysteine protease inhibitors and uses thereof” (The Trustees of Columbia University in the City of New York, priority 2012, dated 2016).
# How the values were obtained:
# [1] = test system: Cal1cat vs CathB; assay: Competition assay for Cal1 vs CathB using the biotinylated epoxide probe; format: binding, rat
# [2] = biological target: papain (Carica papaya (Papaya), UniProt P00784); assay: biochemical; format: biochemical
# [3] = test system: calpain-generated spectrin fragments; assay: Spectrin proteolytic degradation products in hippocampi, western blot; format: in vivo
# Protocol: Studies were performed to determine capability of lowering levels of spectrin proteolytic degradation products in hippocampi from adult animals. Using western blot analysis, prevention of calpain-generated spectrin fragments was checked following i.p. treatment for 12 days with 30a, 33 and 50 at the same concentrations used for PK assessment. The array of vehicle samples was obtained by loading samples with 5, 10, 15, and 20 μg total protein/lane. Samples from compound treated animals were loaded at 15 μg/lane.
# [4] = test system: APP/PS1 mice; assay: Behavioral rescue assays (contextual fear memory, 2-day RAWM reference memory); format: in vivo
# [5] = Plasma pharmacokinetics after i.p. administration; format: in vivo; settings: ICR mice
# Protocol: Plasma concentrations of 30a, 33 and 50 were determined by LC-MS/MS after i.p. administration to ICR mice. The plasma concentrations at each sampling time are shown on FIG. 10. […] Indeed, following i.p. administration of 30a (7.57 mg/kg), 33 (7.86 mg/kg) and 50 (7.83 mg/kg), the peak plasma concentration occurred at 0.25, 0.5 and 0.125 h after dosing, respectively. […] The respective half-lives were ˜0.6 hrs, ˜1.1 hrs and ˜0.6 hrs.
# [6] = APP/PS1 mice, daily treatment from 2 until 7 months
# Sequence of papain (P00784 134-345): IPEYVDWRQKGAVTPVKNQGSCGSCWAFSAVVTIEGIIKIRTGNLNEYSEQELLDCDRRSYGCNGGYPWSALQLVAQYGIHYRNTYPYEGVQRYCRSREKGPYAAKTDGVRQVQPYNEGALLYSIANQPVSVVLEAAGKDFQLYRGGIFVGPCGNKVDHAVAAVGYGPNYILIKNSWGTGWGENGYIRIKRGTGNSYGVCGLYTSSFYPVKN
smiles,measurement,setting,value
"O=C(O)C1OC1C(=O)N[C@@H](Cc1cscn1)C(=O)Nc1nc(-c2ccc(F)cc2)cs1 (stereo in doubt) [Compound 33, (2S,3S)-3-((S)-1-(4-(4-fluorophenyl)thiazol-2-ylamino)-1-oxo-3-(thiazol-4-yl)propan-2-ylcarbamoyl)oxirane-2-carboxylic acid]",blocking of active site modification by probe 27 (western blot signal),"[1]; 10 min pre-treatment, then 20 min with 27",little change in the CathB signal
same,selectivity for Cal1cat (ratio of Cal1cat versus CathB band intensities),"[1]; ratio for probe 27 alone set as 1.0, inhibitor 5 μM",highest selectivity
same,Ki,"[2]; apparent equilibrium constant, read-out: K1 Papain",5.3 µM
same,ki Papain,[2]; inhibition rate,14.8 s⁻¹
same,rel Papain,[2]; ki/Ki calculated relative to E-64,0.50
same,10^−5 × ki/Ki Papain,[2]; mean ± S.D. of triplicate experiments,27.9 ± 4.7
same,prevention of spectrin cleavage by calpains in hippocampi,"[3]; i.p. treatment for 12 days, doses as for PK",dramatically reduced the amount of fragments
same,brain penetration,[3]; inferred from hippocampal spectrin cleavage,capable of effectively penetrating the brain
same,reference memory,"[4]; 3 month old APP/PS1 mice, 2-day RAWM, daily from 2 months",beneficial
same,contextual fear memory,"[4]; 3 month old APP/PS1 mice, daily i.p. from 2 months",beneficial
same,memory impairment,"[4]; 7 month old APP/PS1 mice, chronic administration",beneficial
same,contextual fear memory,[4]; [6],ameliorated
same,reference memory,[4]; [6],ameliorated
same,time of peak plasma concentration,"[5]; i.p., 30a 7.57, 33 7.86, 50 7.83 mg/kg",0.5 h
same,half-life,"[5]; mouse, ip, plasma",~1.1 h
same,bioavailability,"[5]; mouse, plasma, ip, after i.p. administration, read-out: absolute bioavailability",87.3%
